Structures can show the parent of a compound that is named as a salt.
biological target: T1, HIV protease (Human immunodeficiency virus type 1 group M subtype B, UniProt P04585); test: Inhibition of HIV protease (cleavage of H-Ser-Phe-Asn-Phe-Opr-Gln-Ile-OH, HPLC); format: biochemical; settings: not given
T1 construct: HIV protease consists of 99 amino acids and is evidently split off by itself from the pol polyprotein
Outline: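 Substrate H-Ser-Phe-Asn-Phe-Opr-Gln-Ile-OH in MGTE buffer (MES, glycerol, Triton X-100, PMSF, pH 6) preincubated with inhibitor at 37 °C for 5-10 min, then reacted with protease at 35 °C for 2 h. RP18 HPLC at 215 nm; tetrapeptide fraction gives cleavage rate, IC50 where rate is halved.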

| SMILES | IC50 |
| --- | --- |
| CC(C)[C@H](NC(=O)[C@H](Cc1ccccc1)NC(=O)[C@H](O)[C@@H](O)[C@H](O)[C@H](O)CO)C(=O)N[C@@H](Cc1ccccc1)[C@@H](O)[C@H](O)[C@H](Cc1ccccc1)NC(=O)[C@@H](NC(=O)[C@H](Cc1ccccc1)NC(=O)[C@H](O)[C@@H](O)[C@H](O)[C@H](O)CO)C(C)C [Example 110, N,N'-bis-<D-Gluconyl-L-phenylalanyl-L-valyl>-2S,5S-diamino-1,6-diphenylhexane-3R,4R-diol] | 1 nM |

same assay, conditions: inhibitor concentration at which the cleavage rate is halved; Ex. 99; read-out: IC50

| SMILES | IC50 |
| --- | --- |
| CC(C)[C@H](NC(=O)[C@@H](CC(=O)N1CCC(N)CC1)Cc1ccccc1)C(=O)N[C@@H](Cc1ccccc1)[C@@H](O)[C@H](O)[C@H](Cc1ccccc1)NC(=O)[C@@H](NC(=O)[C@@H](CC(=O)N1CCC(N)CC1)Cc1ccccc1)C(C)C [Example 99, N,N'-bis-<3-(4-Amino-1-piperidylcarbonyl-2R-benzyl-propionyl-L-valyl>-2S,5S-diamino-1,6-diphenylhexane-3R,4R-dioldihydrochloride] | 15 nM |

same assay, conditions: inhibitor concentration at which the cleavage rate is halved; pH 6, 2 hours; read-out: IC50

| SMILES | IC50 |
| --- | --- |
| CC(C)[C@H](NC(=O)C(Cc1ccccc1)CS(=O)(=O)N1CCC(NC(=O)OC(C)(C)C)CC1)C(=O)N[C@@H](Cc1ccccc1)[C@@H](O)[C@H](O)[C@H](Cc1ccccc1)NC(=O)[C@@H](NC(=O)C(Cc1ccccc1)CS(=O)(=O)N1CCC(NC(=O)OC(C)(C)C)CC1)C(C)C (stereo partly drawn) [Example 98, N,N'-bis-<2-Benzyl-3-(4-tert.-butoxycarbonylamino-1-piperidylsulfonyl)-propionyl-L-valyl>-2S,5S-diamino-1,6-diphenylhexane-3R,4R-diol] | 1000 nM |
| CC(C)[C@H](NC(=O)[C@@H](CC(=O)N1CCC(NC(=O)OC(C)(C)C)CC1)Cc1ccccc1)C(=O)N[C@@H](Cc1ccccc1)[C@@H](O)[C@H](O)[C@H](Cc1ccccc1)NC(=O)[C@@H](NC(=O)[C@@H](CC(=O)N1CCC(NC(=O)OC(C)(C)C)CC1)Cc1ccccc1)C(C)C [Example 100, N,N'-bis-<2R-Benzyl-3-(4-tert.-butoxycarbonylamino-1-piperidylcarbonyl)-propionyl-n-valyl>-2S,5S-diamino-1,6-diphenylhexane-3R,4R-diol dihydrochloride] | 400 nM |
| CC(C)[C@H](NC(=O)[C@@H](CC(=O)OC(C)(C)C)Cc1ccccc1)C(=O)N[C@@H](Cc1ccccc1)[C@@H](O)[C@H](O)[C@H](Cc1ccccc1)NC(=O)[C@@H](NC(=O)[C@@H](CC(=O)OC(C)(C)C)Cc1ccccc1)C(C)C [Example 102, N,N'-bis-<(2R-Benzyl-3-tert.-butoxycarbonyl)-propionyl-L-valyl>-2S,5S-diamino-1,6-diphenylhexane-3R,4R-diol] | 38 nM |
| CC(C)[C@H](NC(=O)[C@@H](CNC(=O)OC(C)(C)C)Cc1ccccc1)C(=O)N[C@@H](Cc1ccccc1)[C@@H](O)[C@H](O)[C@H](Cc1ccccc1)NC(=O)[C@@H](NC(=O)[C@@H](CNC(=O)OC(C)(C)C)Cc1ccccc1)C(C)C [Example 106, N,N,-bis-<(2R-Benzyl-3-tert.-butoxycarbonylamino)-propionly-L-valyl>-2S,5S-diamino-1,6-diphenylhexane-3R,4R-diol] | 85 nM |
| CC(C)[C@H](NC(=O)[C@H](Cc1ccccc1)OC1O[C@H]([C@H](O)CO)[C@H](O)[C@@H]1O)C(=O)N[C@@H](Cc1ccccc1)[C@@H](O)[C@H](O)[C@H](Cc1ccccc1)NC(=O)[C@@H](NC(=O)[C@H](Cc1ccccc1)OC1O[C@H]([C@H](O)CO)[C@H](O)[C@@H]1O)C(C)C (stereo partly drawn) [Example 107, N,N'-bis-<O-(D-Mannofuranosyl)-2S-hydroxy-3-phenyl-propionyl-L-valyl>-2S,5S-diamino-1,6-diphenylhexane-3R,4R-diol] | 8.5 nM |
| CC(C)[C@H](NC(=O)[C@@H](N)Cc1ccccc1)C(=O)N[C@@H](CCc1ccncc1)[C@@H](O)[C@H](O)[C@H](CCc1ccncc1)NC(=O)[C@@H](NC(=O)[C@@H](N)Cc1ccccc1)C(C)C [Example 108, N,N'-bis-(L-Phenylalanyl-L-valyl)-3S,6S-diamino-1,8-di(4-pyridyl)-octane-,5R-diol tetrahydrochloride] | 280 nM |
| CC(C)[C@H](NC(=O)[C@H](Cc1ccccc1)NC[C@@]1(O)OC[C@@H](O)[C@@H](O)[C@@H]1O)C(=O)N[C@@H](Cc1ccccc1)[C@H](O)[C@@H](O)[C@H](Cc1ccccc1)NC(=O)[C@@H](NC(=O)[C@H](Cc1ccccc1)NC[C@@]1(O)OC[C@@H](O)[C@@H](O)[C@@H]1O)C(C)C [Example 109, N,N'-bis-<N-(β-D-1-Deoxyfructos-1-yl-L-phenylalanyl-L-valyl>-2S,5S-diamino-1,6-diphenylhexane-3S,4S-diol diacetate] | 5 nM |
| CC(C)[C@H](NC(=O)[C@@H](N)Cc1ccccc1)C(=O)NC[C@@H](O)[C@H](O)CNC(=O)[C@@H](NC(=O)[C@@H](N)Cc1ccccc1)C(C)C [Example 113, N,N,-bis-<L-phenylalanyl-L-valyl>-1,4-diaminobutane-2R,3R-diol dihydrochloride] | 40 nM |
| CC(C)[C@H](NC(=O)[C@H](CC1CCCCC1)NC(=O)OC(C)(C)C)C(=O)N[C@@H](Cc1ccccc1)[C@@H](O)[C@H](O)[C@H](Cc1ccccc1)NC(=O)[C@@H](NC(=O)[C@H](CC1CCCCC1)NC(=O)OC(C)(C)C)C(C)C [Example 115, N,N'-bis-<tert.-Butyloxycarbonyl-L-cyclohexylalanyl-L-valyl>-2S,5S-diamino-1,6-diphenylhexane-3R,4R-diol] | 2200 nM |
| CC(C)[C@H](NC(=O)[C@@H](N)CC1CCCCC1)C(=O)N[C@@H](Cc1ccccc1)[C@@H](O)[C@H](O)[C@H](Cc1ccccc1)NC(=O)[C@@H](NC(=O)[C@@H](N)CC1CCCCC1)C(C)C [Example 116, N,N'-bis-<L-Cyclohexylalanyl-L-valyl>-2S,5S-diamino-1,6-diphenylhexane-3R,4R-diol dihydrochloride] | 1.7 nM |
| CC(C)[C@H](NC(=O)[C@H](Cc1c[nH]c2ccccc12)NC(=O)OCc1ccccc1)C(=O)N[C@@H](Cc1ccccc1)[C@@H](O)[C@H](O)[C@H](Cc1ccccc1)NC(=O)[C@@H](NC(=O)[C@H](Cc1c[nH]c2ccccc12)NC(=O)OCc1ccccc1)C(C)C [Example 117, N,N'-bis-<Benzyloxycarbonyl-L-tryptophyl-L-valyl>-2S,5S-diamino-1,6-diphenylhexane-3R,4R-diol] | 19 nM |
| CC(C)[C@H](NC(=O)[C@@H]1Cc2ccccc2CN1C(=O)OCc1ccccc1)C(=O)N[C@@H](Cc1ccccc1)[C@@H](O)[C@H](O)[C@H](Cc1ccccc1)NC(=O)[C@@H](NC(=O)[C@@H]1Cc2ccccc2CN1C(=O)OCc1ccccc1)C(C)C [Example 119, N,N'-bis-<Benzyloxycarbonyl-L-1,2,3,4-tetrahydro-isoquinolin-3-ylcarbonyl-L-valyl>-2S, 5S-diamino-1,6-diphenylhexane-3R, 4R-diol] | 10000 nM |
| CC(C)[C@H](NC(=O)[C@@H]1Cc2ccccc2CN1)C(=O)N[C@@H](Cc1ccccc1)[C@@H](O)[C@H](O)[C@H](Cc1ccccc1)NC(=O)[C@@H](NC(=O)[C@@H]1Cc2ccccc2CN1)C(C)C [Example 120, N,N'-bis-<L-1,2,3,4-Tetrahydroisoquinolin-3-ylcarbonyl-L-valyl>-2S,5S-diamino-1,6-diphenylhexane-3R,4R-diol diacetate] | 2 nM |
| CC(C)[C@H](NC(=O)C(Cc1ccccc1)C[S+]([O-])Cc1ccccc1)C(=O)N[C@@H](Cc1ccccc1)[C@@H](O)[C@H](O)[C@H](Cc1ccccc1)NC(=O)[C@@H](NC(=O)C(Cc1ccccc1)C[S+]([O-])Cc1ccccc1)C(C)C (stereo partly drawn) [Example 121, N,N'-bis-<(2-(Benzylsulfinylmethyl)-3-phenylpropionyl)-L-valyl>-2S,5S-diamino-1,6-diphenylhexane-3R,4R-diol] | 22 nM |
| CC(C)[C@H](NC(=O)C(Cc1ccccc1)CS(=O)(=O)Cc1ccc(Cl)cc1)C(=O)N[C@@H](Cc1ccccc1)[C@@H](O)[C@H](O)[C@H](Cc1ccccc1)NC(=O)[C@@H](NC(=O)C(Cc1ccccc1)CS(=O)(=O)Cc1ccc(Cl)cc1)C(C)C (stereo partly drawn) [Example 123, N,N'-bis-<(2-(p-Chlorobenzylsulfonylmethyl)-3-phenyl-propionyl)-L-valyl>-2S,5S-diamino-1,6-diphenylhexane-3R,4R-diol] | 32 nM |
| Cc1ccc(S(=O)(=O)N[C@@H](Cc2ccc3ccccc3c2)C(=O)N[C@H](C(=O)N[C@@H](Cc2ccccc2)[C@@H](O)[C@H](O)[C@H](Cc2ccccc2)NC(=O)[C@@H](NC(=O)[C@H](Cc2ccc3ccccc3c2)NS(=O)(=O)c2ccc(C)cc2)C(C)C)C(C)C)cc1 [Example 124, N,N'-bis-<N-Tosyl-β-naphthylalanyl-L-valyl>-2S, 5S-diamino-1,6-diphenylhexane-3R, 4R-diol] | 11 nM |
| CC(C)[C@H](NC(=O)[C@H](Cc1ccc2ccccc2c1)NS(C)(=O)=O)C(=O)N[C@@H](Cc1ccccc1)[C@@H](O)[C@H](O)[C@H](Cc1ccccc1)NC(=O)[C@@H](NC(=O)[C@H](Cc1ccc2ccccc2c1)NS(C)(=O)=O)C(C)C [Example 125, N,N,-bis-<N-Mesyl-β-naphthylalanyl-L-valyl>-2S,5S-diamino-1,6-diphenylhexane-3R,4R-diol] | 0.75 nM |
| CC(C)[C@H](NC(=O)OC(C)(C)C)C(=O)N[C@H](Cc1ccccc1)[C@@H](O)[C@H](O)[C@@H](Cc1ccccc1)NC(=O)[C@@H](NC(=O)OC(C)(C)C)C(C)C [Example 127, N,N'-bis-<tert.-Butoxycarbonyl-L-valyl>-2R,5R-diamino-1,6-diphenylhexane-3R,4R-diol] | 46 nM |

same assay, conditions: read-out: IC50

| SMILES | IC50 |
| --- | --- |
| CC(C)[C@H](NC(=O)[C@@H](N)Cc1c[nH]c2ccccc12)C(=O)N[C@@H](Cc1ccccc1)[C@@H](O)[C@H](O)[C@H](Cc1ccccc1)NC(=O)[C@@H](NC(=O)[C@@H](N)Cc1c[nH]c2ccccc12)C(C)C [Example 118, N,N'-bis-<L-Tryptophyl-L-valyl>-2S,5S-diamino-1,6-diphenylhexane-3R,4R-dioldihydrochloride] | 1.2 nM |

Source: patent US5712417A, “Inhibitors of retroviral proteases” (Abbott Laboratories, priority 1989, dated 1998)
